According to article PMC12352619, “Phylogeny-guided discovery of a promiscuous P450 macrocyclase for the production of diverse atropopeptides” (Chemical Science, 2025):

Experiments:
[1] = system: MDCK II cells; settings: 100 µM, 48 h, CellTiter-Glo
[2] = system: A/Hamburg/05/2009 (H1N1pdm); assay: Screening of antiviral activity in MDCK II cells, H1N1pdm; assay type: cell-based, influenza virus; settings: for antiviral effect: MOI 0.001, 48 h, CellTiter-Glo, normalized to aprotinin = 100%; for antiviral efficacy compared among the tested atropopeptides: statement made for the four strains together
[3] = system: A/Hessen/1/2003 (H3N2); assay: Screening of antiviral activity in MDCK II cells, H3N2; assay type: cell-based, influenza virus; settings: for antiviral effect: MOI 0.001, 48 h, CellTiter-Glo, normalized to aprotinin = 100%; for antiviral efficacy compared among the tested atropopeptides: statement made for the four strains together
[4] = system: ICAM1; assay type: cell-based, mouse; settings: b.End.3 cells, 1 µg/ml LPS, peptide 1 µg/ml added 8 hours after stimulation, for 60 h, flow cytometry, n = 6 technical replicates
[5] = system: B/Massachusetts/71 (Massachusetts/B); assay: Screening of antiviral activity in MDCK II cells, Massachusetts/B; assay type: cell-based, influenza virus; settings: for antiviral effect: MOI 0.001, 48 h, CellTiter-Glo, normalized to aprotinin = 100%; for antiviral efficacy compared among the tested atropopeptides: statement made for the four strains together
[6] = system: B/Malaysia/2506/2004 (Malaysia/B); assay: Screening of antiviral activity in MDCK II cells, Malaysia/B; assay type: cell-based, influenza virus; settings: for antiviral effect: MOI 0.001, 48 h, CellTiter-Glo, normalized to aprotinin = 100%; for antiviral efficacy compared among the tested atropopeptides: statement made for the four strains together
[7] = system: VCAM1; assay type: cell-based, mouse; settings: b.End.3 cells, 1 µg/ml LPS, peptide 1 µg/ml added 8 hours after stimulation, for 60 h, flow cytometry, n = 6 technical replicates

Row | Substance | cytotoxicity toward MDCK II cells (cell viability, ATP) [1] | antiviral effect [2] | antiviral efficacy compared among the tested atropopeptides [2] | antiviral effect [3] | antiviral efficacy compared among the tested atropopeptides [3] | ICAM1 expression (mean fluorescence intensity) [4] | antiviral effect [5] | antiviral efficacy compared among the tested atropopeptides [5] | antiviral effect [6] | antiviral efficacy compared among the tested atropopeptides [6] | VCAM1 expression (mean fluorescence intensity) [7]
1 | H-WYIW-OH (also: sidechain bridge or staple (positions not given here)) [compound 1, scabrirubin CB-1, cyclic tetrapeptide from S. albus/pUWL-LauA + ScaB, C–N biaryl crosslink between Trp-1 and Trp-4] | did not show cytotoxicity | dose-dependent antiviral effect | comparable antiviral efficacies | dose-dependent antiviral effect | comparable antiviral efficacies | slight reduction | dose-dependent antiviral effect | comparable antiviral efficacies | dose-dependent antiviral effect | comparable antiviral efficacies | unchanged
2 | H-WYQWL-OH (also: sidechain bridge or staple (positions not given here)) [compound 3, scabrirubin CB-3, cyclic pentapeptide from S. albus/pUWL-SvaA + ScaB with C–N biaryl crosslink] | did not show cytotoxicity | dose-dependent antiviral effect | slightly reduced activity | dose-dependent antiviral effect | slightly reduced activity | significantly reduced | dose-dependent antiviral effect | slightly reduced activity | dose-dependent antiviral effect | slightly reduced activity | significantly reduced
3 | scabrirubin [reference compound] | did not show cytotoxicity | dose-dependent antiviral effect | comparable antiviral efficacies | dose-dependent antiviral effect | comparable antiviral efficacies | slight reduction | dose-dependent antiviral effect | comparable antiviral efficacies | dose-dependent antiviral effect | comparable antiviral efficacies | slightly elevated
